# Source: publication PMC5045412, “Inhibition of pro-HGF activation by SRI31215, a novel approach to block oncogenic HGF/MET signaling” (Oncotarget, 2016)
# Columns and labels:
# [1] = molecular target: T1, hepsin (Homo sapiens, UniProt P05981); assay: Protease panel, FRET peptide substrate; format: biochemical
# T1 construct: purchased R&D Systems
# Protocol: (§1) The inhibitory activity of SRI 31215 was tested in a panel of six proteases, which included matriptase, hepsin, HGFA, trypsin, thrombin and coagulation factor Xa. All six enzymes were purchased from R&D Systems. The assay buffer used was 50 mM Tris, 20 mM NaCl, 0.01% Tween 20, pH 8.0. The substrate was a custom FRET peptide based on the pro-HGF cleavage sequence (H2N-(EEdans)GKQLRVVNGG(KDabcyl)-amide) pre- pared by New England Peptide. All measurements were made using an Aminco-Bowman Series 2 Luminescence Spectrometer.
# [2] = tested on: trypsin; assay: Protease panel, FRET peptide substrate; format: biochemical
# Protocol: as §1
# [3] = molecular target: T2, HGFA (Homo sapiens, UniProt Q04756); assay: Protease panel, FRET peptide substrate; format: biochemical
# T2 construct: purchased R&D Systems
# T2 sequence (Q04756 373-655): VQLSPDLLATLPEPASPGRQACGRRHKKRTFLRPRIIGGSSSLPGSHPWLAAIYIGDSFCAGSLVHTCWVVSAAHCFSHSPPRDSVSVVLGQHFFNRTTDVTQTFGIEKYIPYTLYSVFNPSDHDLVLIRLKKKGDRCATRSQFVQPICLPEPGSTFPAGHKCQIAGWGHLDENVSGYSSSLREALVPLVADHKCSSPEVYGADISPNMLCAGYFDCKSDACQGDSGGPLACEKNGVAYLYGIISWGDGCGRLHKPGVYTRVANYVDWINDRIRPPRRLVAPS
# Protocol: as §1
# [4] = molecular target: T3, thrombin (Homo sapiens, UniProt P00734); assay: Protease panel, FRET peptide substrate; format: biochemical
# T3 construct: purchased R&D Systems
# Protocol: as §1
# [5] = molecular target: T4, matriptase (Homo sapiens, UniProt Q9Y5Y6); assay: Protease panel, FRET peptide substrate; format: biochemical
# T4 construct: purchased R&D Systems
# T4 sequence (Q9Y5Y6 1-855): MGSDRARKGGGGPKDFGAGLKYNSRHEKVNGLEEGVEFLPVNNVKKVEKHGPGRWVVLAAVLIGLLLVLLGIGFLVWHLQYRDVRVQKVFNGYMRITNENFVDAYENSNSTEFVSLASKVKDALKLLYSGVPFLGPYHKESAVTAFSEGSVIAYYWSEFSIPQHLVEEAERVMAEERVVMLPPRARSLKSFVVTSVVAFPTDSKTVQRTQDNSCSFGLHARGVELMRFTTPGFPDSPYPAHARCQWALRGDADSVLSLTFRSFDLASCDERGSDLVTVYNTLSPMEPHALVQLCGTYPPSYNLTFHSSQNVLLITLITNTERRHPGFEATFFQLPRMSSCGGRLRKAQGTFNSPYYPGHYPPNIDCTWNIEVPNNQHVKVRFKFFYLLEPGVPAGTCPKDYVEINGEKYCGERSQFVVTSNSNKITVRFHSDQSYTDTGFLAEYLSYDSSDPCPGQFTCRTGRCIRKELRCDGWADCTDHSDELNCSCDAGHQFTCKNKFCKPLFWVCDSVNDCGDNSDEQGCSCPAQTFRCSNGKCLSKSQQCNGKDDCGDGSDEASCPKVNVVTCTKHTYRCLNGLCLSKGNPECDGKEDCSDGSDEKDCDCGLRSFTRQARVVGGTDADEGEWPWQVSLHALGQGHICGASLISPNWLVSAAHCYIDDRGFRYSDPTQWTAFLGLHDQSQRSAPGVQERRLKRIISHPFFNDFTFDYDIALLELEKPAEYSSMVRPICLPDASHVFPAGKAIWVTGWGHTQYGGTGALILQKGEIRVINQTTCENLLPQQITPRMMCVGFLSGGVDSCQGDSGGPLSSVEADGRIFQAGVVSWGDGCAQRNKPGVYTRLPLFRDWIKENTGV
# Protocol: as §1
# [6] = tested on: DU145 cells; parameters: method as in PMID 26985294; conditions: dose-dependent; cited from earlier work
# T1 sequence (P05981 whole entry): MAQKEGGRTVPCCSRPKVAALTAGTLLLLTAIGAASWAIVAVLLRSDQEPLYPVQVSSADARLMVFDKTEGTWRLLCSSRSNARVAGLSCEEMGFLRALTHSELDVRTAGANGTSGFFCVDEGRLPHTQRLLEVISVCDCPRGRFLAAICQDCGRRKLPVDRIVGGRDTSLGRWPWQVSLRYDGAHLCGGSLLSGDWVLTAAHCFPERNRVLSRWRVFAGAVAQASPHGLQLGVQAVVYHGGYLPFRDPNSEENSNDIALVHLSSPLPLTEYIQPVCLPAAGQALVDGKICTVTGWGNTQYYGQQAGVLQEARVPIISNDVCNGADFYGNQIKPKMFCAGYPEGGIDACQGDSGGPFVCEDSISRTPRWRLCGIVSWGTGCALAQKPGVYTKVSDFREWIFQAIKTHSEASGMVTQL
compound,measurement,setting,value
"CC1CN(CC2CCN(Cc3ccccc3)CC2)C(=O)N(c2cccc(C(=N)N)c2)C1 (stereo not drawn) [SRI 31215, 3-(3-((1-benzylpiperidin-4-yl)methyl)-5-methyl-2-oxotetrahydropyrimidin-1(2H)-yl)benzimidamide]",IC50,[1],650 nM
same,selectivity for trypsin,[2],acceptable
same,IC50,[3],300 nM
same,selectivity for thrombin,[4],acceptable
same,IC50,[5],690 nM
same,concentration at which biological activity (block of scattering) was detected,[6],1 μM
